Reference: patent publication US20230399341A1, “7-PHENYL SUBSTITUTED 2-AMINOQUINAZOLINE INHIBITORS OF HPK1” (MERCK SHARP & DOHME LLC, priority 2020, published 2023)
Each block holds one compound with its values, some of them ahead of it.

Target: T1, Human HPK1, catalytic domain (Homo sapiens, UniProt Q92918)
T1 sequence (Q92918 1-346): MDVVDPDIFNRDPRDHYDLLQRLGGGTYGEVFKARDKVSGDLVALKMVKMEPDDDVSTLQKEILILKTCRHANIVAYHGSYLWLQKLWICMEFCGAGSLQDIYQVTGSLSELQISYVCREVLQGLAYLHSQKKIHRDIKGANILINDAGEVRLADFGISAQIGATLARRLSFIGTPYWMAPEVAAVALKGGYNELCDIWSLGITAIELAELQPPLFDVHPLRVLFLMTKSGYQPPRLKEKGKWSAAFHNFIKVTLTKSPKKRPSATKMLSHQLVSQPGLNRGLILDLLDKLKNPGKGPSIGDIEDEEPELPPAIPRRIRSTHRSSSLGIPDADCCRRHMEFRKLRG
Assay: HPK1-SLP76 TR-FRET Assay
Type: biochemical
Conditions: 75 pM HPK1, ATP 10 uM, SLP76 10 nM, 30 min pre-incubation, 60 min reaction

Structure (SMILES): COc1cc2c(cc1Nc1ncc3c(N)c(F)c(-c4cnc5c(c4C)NCCO5)cc3n1)CN(C)CC21CC1 [Compound 2-45, 6-fluoro-N~2~-(6′-methoxy-2′-methyl-2′,3′-dihydro-1′H-spiro[cyclopropane-1,4′-isoquinolin]-7′-yl)-7-(8-methyl-2,3-dihydro-1H-pyrido[2,3-b][1,4]oxazin-7-yl)quinazoline-2,5-diamine]
IC50: 0.163 nM

Structure (SMILES): Cc1c(-c2cc3nc(Nc4cnc5c(c4)CN(C)CC5)ncc3c(N)c2F)cnc2c1NCCO2 [Compound 2-183, 6-fluoro-7-(8-methyl-2,3-dihydro-1H-pyrido[2,3-b][1,4]oxazin-7-yl)-N~2~- (6-methyl-5,6,7,8-tetrahydro-1,6-naphthyridin-3-yl)quinazoline-2,5-diamine]
IC50: 0.0379 nM

Structure (SMILES): Cc1c(-c2cc3nc(Nc4ccc(CC(=O)N(C)C)cc4)ncc3cc2F)cnc2c1NCCO2 [Compound 1-132, 2-(4-{[6-fluoro-7-(8-methyl-2,3-dihydro-1H-pyrido[2,3-b][1,4]oxazin-7-yl)quinazolin-2-yl]amino}phenyl)-N,N-dimethylacetamide]
IC50: 0.132 nM

Structure (SMILES): CCS(=O)(=O)Cc1ccc(Nc2ncc3c(N)c(F)c(-c4cnc5c(c4C)NCC(C)O5)cc3n2)c(F)c1 (single isomer, unassigned) [Compound 2-129, (R or S)-7-(3,8-dimethyl-2,3-dihydro-1H-pyrido[2,3-b][1,4]oxazin-7-yl)-N2-(4-((ethylsulfonyl)methyl)-2-fluorophenyl)-6-fluoroquinazoline-2,5-diamine]
IC50: 0.454 nM

Structure (SMILES): Cc1c(-c2cc3nc(Nc4ccc(CS(C)(=O)=O)cc4F)ncc3c(N)c2F)cnc2c1NCCO2 [Compound 2-155, 6-fluoro-N~2~-{2-fluoro-4-[(methylsulfonyl)methyl]phenyl}-7-(8-methyl-2,3-dihydro-1H-pyrido[2,3-b][1,4]oxazin-7-yl)quinazoline-2,5-diamine]
IC50: 0.0647 nM

Structure (SMILES): Cc1c(-c2cc3nc(Nc4ccc([S+](C)[O-])cc4)ncc3c(N)c2F)cnc2c1NCCO2 (stereo not drawn) [Compound 2-170, 6-fluoro-7-(8-methyl-2,3-dihydro-1H-pyrido[2,3-b][1,4]oxazin-7-yl)-N~2~- [4-(methylsulfinyl)phenyl] quinazoline-2,5-diamine]
IC50: 0.0392 nM

Structure (SMILES): Cc1c(-c2cc3nc(Nc4ccc5c(c4)CN(C)CC5)ncc3c(N)c2F)cnc2cc[nH]c12 [Compound 2-130, 6-fluoro-7-(7-methyl-1H-pyrrolo[3,2-b]pyridin-6-yl)-N~2~-(2-methyl-1,2,3,4-tetrahydroisoquinolin-7-yl)quinazoline-2,5-diamine]
IC50: 0.103 nM

Structure (SMILES): CN1Cc2cc(Nc3ncc4c(N)c(F)c(-c5cnc6c(c5Cl)NCCO6)cc4n3)ccc2C2(CC2)C1 [Compound 2-152, 7-(8-chloro-2,3-dihydro-1H-pyrido[2,3-b][1,4]oxazin-7-yl)-6-fluoro-N~2~-(2′-methyl-2′,3′-dihydro-1′H-spiro[cyclopropane-1,4′-isoquinolin]-7′-yl)quinazoline-2,5-diamine]
IC50: 0.0714 nM

Structure (SMILES): CC(=O)N1CCCC1c1ccc(Nc2ncc3c(N)c(F)c(-c4cnc5c(c4C)NCCO5)cc3n2)cc1 (single isomer, unassigned) [Compound 2-29, (R or S)-1-[2-(4-{[5-amino-6-fluoro-7-(8-methyl-2,3-dihydro-1H-pyrido[2,3-b][1,4]oxazin-7-yl)quinazolin-2-yl]amino}phenyl)pyrrolidin-1-yl]ethan-1-one]
IC50: 0.273 nM

Structure (SMILES): CNC(=O)Cc1ccc(Nc2ncc3cc(F)c(-c4cnc5c(c4C)NCCO5)cc3n2)cc1 [Compound 1-130, 2-(4-{[6-fluoro-7-(8-methyl-2,3-dihydro-1H-pyrido[2,3-b][1,4]oxazin-7-yl)quinazolin-2-yl]amino}phenyl)-N-methylacetamide]
IC50: 0.0726 nM

Structure (SMILES): Cc1c(-c2c(F)c(N)c3cnc(Nc4ccc(CS(C)(=O)=O)cc4)nc3c2Cl)cnc2c1NCC(C)(C)O2 [Compound 2-161, (+ and −)-8-chloro-6-fluoro-N~2~-{4-[(methylsulfonyl)methyl]phenyl}-7-(3,3,8-trimethyl-2,3-dihydro-1H-pyrido[2,3-b][1,4]oxazin-7-yl)quinazoline-2,5-diamine]
IC50: 0.252 nM

Results, then the compound that gave them:

IC50: 18.4 nM
Structure (SMILES): COc1cc2c(cc1Nc1ncc3ccc(Nc4cccc(S(C)(=O)=O)c4)cc3n1)CN(C)CC2 [Compound 3-33, N~2~-(6-methoxy-2-methyl-1,2,3,4-tetrahydroisoquinolin-7-yl)-N~7~-[3-(methylsulfon-yl)phenyl]quinazoline-2,7-diamine]

IC50: 10 nM
Structure (SMILES): COc1cc2c(cc1Nc1ncc3ccc(Nc4cc(C(N)=O)ccn4)cc3n1)CN(C)CC2 [Compound 3-41, 2-({2-[(6-methoxy-2-methyl-1,2,3,4-tetrahydroisoquinolin-7-yl)amino]quinazolin-7-yl}-amino)pyridine-4-carboxamide]

IC50: 0.696 nM
Structure (SMILES): COc1cc2c(cc1Nc1ncc3c(N)c(F)c(-c4cnc5c(c4C)NCCO5)cc3n1)C(C)N(C)C(C)C2 (racemic) [Compound 2-48, (R,R and S,S)-6-fluoro-N~2~-(6-methoxy-1,2,3-trimethyl-1,2,3,4-tetrahydroisoquinolin-7-yl)-7-(8-methyl-2,3-dihydro-1H-pyrido[2,3-b][1,4]oxazin-7-yl)quinazoline-2,5-diamine]

IC50: 92.4 nM
Structure (SMILES): COc1cc2c(cc1Nc1ncc3ccc(-c4ccccc4C4CC4)cc3n1)CNCC2 [Compound 1-92, 7-(2-cyclopropylphenyl)-N-(6-methoxy-1,2,3,4-tetrahydroisoquinolin-7-yl)quinazolin-2-amine]

IC50: 387 nM
Structure (SMILES): COc1cc2c(cc1Nc1ncc3ccc(-c4ccc(NCCN5CCOCC5)nc4)cc3n1)CNCC2 [Compound 1-48, N-(6-methoxy-1,2,3,4-tetrahydroisoquinolin-7-yl)-7-(6-{[2-(morpholin-4-yl)ethyl]amino}pyridin-3-yl)quinazolin-2-amine]

IC50: 1.52 nM
Structure (SMILES): COc1cc2c(cc1Nc1ncc3ccc(-c4cncc(N)c4C)cc3n1)CN(C)CC2 [Compound 1-3, 7-(5-amino-4-methylpyridin-3-yl)-N-(6-methoxy-2-methyl-1,2,3,4-tetrahydroisoquinolin-7-yl)quinazolin-2-amine]

IC50: 224 nM
Structure (SMILES): COc1cc2c(cc1Nc1ncc3ccc(Oc4ccc(N5CCN(C(C)=O)CC5)cc4)cc3n1)CN(C)CC2 [Compound 4-7, 1-{4-[4-({2-[(6-methoxy-2-methyl-1,2,3,4-tetrahydro-isoquinolin-7-yl)amino]-quinazolin-7-yl}oxy)phen-yl]piperazin-1-yl}ethan-1-one]
